pIC50: −log10 of the molar value.
How the values were obtained:
Beta-secretase 1 [1] = biological target: T1, Beta-secretase 1 (Homo sapiens, UniProt P56817); assay: Inhibition of BACE1 (unknown origin) by FRET assay
[2] = Permeability from apical to basolateral side in MDCK cells at 50 uM; assay type: ADME, cell-based, Canis lupus familiaris; settings: dog
Beta-secretase 2 = biological target: T2, Beta-secretase 2 (Homo sapiens, UniProt Q9Y5Z0); assay: Inhibition of BACE2 (unknown origin)
T2 sequence (Q9Y5Z0 whole entry): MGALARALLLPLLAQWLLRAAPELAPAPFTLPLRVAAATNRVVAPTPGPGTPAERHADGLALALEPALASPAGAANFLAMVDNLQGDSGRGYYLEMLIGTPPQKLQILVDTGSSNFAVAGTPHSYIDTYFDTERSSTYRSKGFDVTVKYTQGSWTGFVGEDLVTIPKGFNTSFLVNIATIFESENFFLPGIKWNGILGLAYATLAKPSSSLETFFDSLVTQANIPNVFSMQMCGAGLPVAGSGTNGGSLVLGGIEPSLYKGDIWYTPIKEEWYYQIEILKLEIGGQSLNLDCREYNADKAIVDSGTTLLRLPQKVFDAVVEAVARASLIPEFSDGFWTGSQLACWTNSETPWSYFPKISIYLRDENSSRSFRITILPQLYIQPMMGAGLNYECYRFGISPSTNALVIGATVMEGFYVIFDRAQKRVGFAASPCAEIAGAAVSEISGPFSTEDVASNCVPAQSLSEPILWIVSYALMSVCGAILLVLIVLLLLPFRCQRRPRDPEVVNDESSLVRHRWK

Cathepsin D [3] = biological target: T3, Cathepsin D (Homo sapiens, UniProt P07339); assay: Inhibition of cathepsin D (unknown origin) at 10 uM
T3 sequence (P07339 65-162 limits assumed): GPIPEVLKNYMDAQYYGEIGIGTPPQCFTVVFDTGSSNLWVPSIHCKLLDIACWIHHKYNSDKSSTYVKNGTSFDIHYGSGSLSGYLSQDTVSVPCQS
T3 sequence (P07339 169-412 limits assumed): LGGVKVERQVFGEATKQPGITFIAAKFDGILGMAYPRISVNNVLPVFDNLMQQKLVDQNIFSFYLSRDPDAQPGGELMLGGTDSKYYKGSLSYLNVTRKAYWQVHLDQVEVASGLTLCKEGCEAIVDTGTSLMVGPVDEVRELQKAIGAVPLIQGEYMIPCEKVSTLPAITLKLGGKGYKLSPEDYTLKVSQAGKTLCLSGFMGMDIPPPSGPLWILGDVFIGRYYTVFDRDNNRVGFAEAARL

Beta-secretase 1 [4] = biological target: T1, Beta-secretase 1; assay: Inhibition of BACE1 in […] PC12 cells expressing APP Sweden mutant; assay type: cell-based, PC-12
Cathepsin D [5] = biological target: T3, Cathepsin D; assay: Inhibition of cathepsin D (unknown origin)
Beta-secretase 1 [6] = biological target: T1, Beta-secretase 1; assay: Inhibition of BACE1 in […] PC12 cells expressing APP Sweden mutant at 10 uM; assay type: cell-based; settings: PC-12
Beta-secretase 1 [7] = biological target: T1, Beta-secretase 1; assay: Inhibition of BACE1 (unknown origin)

T1 sequence (P56817 whole entry): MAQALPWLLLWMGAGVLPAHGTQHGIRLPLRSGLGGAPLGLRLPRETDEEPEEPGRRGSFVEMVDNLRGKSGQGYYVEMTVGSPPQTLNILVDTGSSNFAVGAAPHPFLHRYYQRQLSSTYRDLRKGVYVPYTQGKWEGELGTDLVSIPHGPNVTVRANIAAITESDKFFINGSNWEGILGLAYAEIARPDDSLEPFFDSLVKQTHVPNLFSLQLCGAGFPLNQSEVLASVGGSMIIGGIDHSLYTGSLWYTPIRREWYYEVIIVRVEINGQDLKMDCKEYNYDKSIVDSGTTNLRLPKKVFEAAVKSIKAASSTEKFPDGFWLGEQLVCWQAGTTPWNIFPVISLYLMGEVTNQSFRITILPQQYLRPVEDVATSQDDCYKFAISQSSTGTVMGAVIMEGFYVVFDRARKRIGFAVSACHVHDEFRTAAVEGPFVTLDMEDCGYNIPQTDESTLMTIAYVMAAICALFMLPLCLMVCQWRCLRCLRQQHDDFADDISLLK

Question: With `CN(C)c1ccc(C(=O)O[C@H]2CN(C(=O)OC(C)(C)C)C[C@@H]2Nc2nc3cc(F)ccc3[nH]2)cc1` as the molecule, how does the pIC50 (Beta-secretase 1 [1]) read?
Answer: 5.87

Question: For `Cc1ccc2[nH]c(N[C@H]3CNC[C@@H]3OC(=O)c3ccc(-c4ccccc4)cc3)nc2c1`, which Papp A→B at 50 µM [2] is on record?
Answer: 4.8 ×10⁻⁶ cm/s

Question: And the pIC50 (Beta-secretase 2)?
Answer: 5.37

Question: And the inhibition (Cathepsin D [3])?
Answer: 4.5%

Question: What about the pIC50 (Beta-secretase 1 [4]) of the same molecule?
Answer: 5.49

Question: What about the pIC50 (Cathepsin D [5]) of the same molecule?
Answer: < 5.00

Question: What about the pIC50 (Beta-secretase 1 [1]) of the same molecule?
Answer: 6.18

Question: With `CC(C)(C)OC(=O)N1C[C@H](Nc2nc3cc(Cl)ccc3[nH]2)[C@@H](OC(=O)c2cccc(Oc3ccccc3)c2)C1` as the molecule, how does the pIC50 (Beta-secretase 1 [1]) read?
Answer: 6.44

Question: With `COC(=O)CN1C[C@H](Nc2nc3cc(C)ccc3[nH]2)[C@@H](OC(=O)c2ccc(-c3ccccc3)cc2)C1` as the molecule, how does the pIC50 (Beta-secretase 1 [1]) read?
Answer: 6.24

Question: With `Cc1ccc2[nH]c(N[C@H]3CN(C(=O)OC(C)(C)C)C[C@@H]3OC(=O)c3cccc(-c4ccc(F)cc4)c3)nc2c1` as the molecule, how does the pIC50 (Beta-secretase 1 [1]) read?
Answer: 6.72

Question: With `CC(C)c1ccc(CO[C@H]2CN(S(=O)(=O)c3ccccc3)C[C@@H]2Nc2nc3cc(F)ccc3[nH]2)cc1` as the molecule, how does the pIC50 (Beta-secretase 1 [1]) read?
Answer: 6.32

Question: With `CC(C)(C)OC(=O)N1C[C@H](Nc2nc3cc(F)ccc3[nH]2)[C@@H](OC(=O)c2ccc(-c3ccccc3)cc2)C1` as the molecule, how does the Papp A→B at 50 µM [2] read?
Answer: 1.5 ×10⁻⁶ cm/s

Question: And the pIC50 (Beta-secretase 2)?
Answer: 5.00

Question: What about the inhibition (Cathepsin D [3]) of the same molecule?
Answer: 1.1%

Question: What about the pIC50 (Cathepsin D [5]) of the same molecule?
Answer: < 5.00

Question: What about the pIC50 (Beta-secretase 1 [1]) of the same molecule?
Answer: 7.30

Question: What about the inhibition (Beta-secretase 1 [6]) of the same molecule?
Answer: 40%

Question: With `Cc1ccc2[nH]c(N[C@H]3CN(C(=O)c4ccccc4)C[C@@H]3OC(=O)c3ccc(-c4ccccc4)cc3)nc2c1` as the molecule, how does the Papp A→B at 50 µM [2] read?
Answer: 5.2 ×10⁻⁶ cm/s

Question: What about the pIC50 (Beta-secretase 2) of the same molecule?
Answer: 5.24

Question: And the inhibition (Cathepsin D [3])?
Answer: 4.2%

Question: And the pIC50 (Cathepsin D [5])?
Answer: < 5.00

Question: What about the pIC50 (Beta-secretase 1 [1]) of the same molecule?
Answer: 6.41

Question: And the inhibition (Beta-secretase 1 [6])?
Answer: 52%

Question: With `CC(C)c1ccc(CO[C@H]2CN(CCO)C[C@@H]2Nc2nc3cc(F)ccc3[nH]2)cc1` as the molecule, how does the pIC50 (Beta-secretase 1 [1]) read?
Answer: < 5.30

Question: With `COc1ccc(N2CCN([C@@H]3CN(C(=O)Nc4cc(Cl)cc(Cl)c4)CC[C@H]3OC(=O)c3ccc(Oc4ccccc4)cc3)CC2)cc1` as the molecule, how does the pIC50 (Beta-secretase 1 [7]) read?
Answer: 6.22

Question: With `Cc1ccc2[nH]c(N[C@H]3CN(C(=O)OC(C)(C)C)C[C@@H]3OC(=O)c3ccc(-c4ccccc4)cc3)nc2c1` as the molecule, how does the pIC50 (Beta-secretase 1 [1]) read?
Answer: 6.68

Question: With `CCCS(=O)(=O)N1C[C@H](Nc2nc3cc(F)ccc3[nH]2)[C@@H](OCc2ccc(C(C)C)cc2)C1` as the molecule, how does the pIC50 (Beta-secretase 1 [1]) read?
Answer: 6.19

Question: With `CCCS(=O)(=O)N1C[C@H](Nc2nc3cc(F)ccc3[nH]2)[C@@H](OC(=O)c2ccc(C(C)C)cc2)C1` as the molecule, how does the pIC50 (Beta-secretase 1 [1]) read?
Answer: 6.17

Question: With `CC(=O)N1C[C@H](Nc2nc3cc(C)ccc3[nH]2)[C@@H](OC(=O)c2ccc(-c3ccccc3)cc2)C1` as the molecule, how does the pIC50 (Beta-secretase 1 [1]) read?
Answer: 6.14

Question: For `CC(C)(C)OC(=O)N1C[C@H](Nc2nc3cc(F)ccc3[nH]2)[C@@H](OCc2ccc(-c3ccccc3)cc2)C1`, which Papp A→B at 50 µM [2] is on record?
Answer: 13 ×10⁻⁶ cm/s

Question: What about the pIC50 (Beta-secretase 2) of the same molecule?
Answer: 5.05

Question: What about the inhibition (Cathepsin D [3]) of the same molecule?
Answer: 5.7%

Question: And the pIC50 (Beta-secretase 1 [4])?
Answer: 5.77

Question: What about the pIC50 (Cathepsin D [5]) of the same molecule?
Answer: < 5.00

Question: What about the pIC50 (Beta-secretase 1 [1]) of the same molecule?
Answer: 6.92

Question: With `CC(C)c1ccc(CO[C@H]2CN(C(=O)OC(C)(C)C)C[C@@H]2Nc2nc3cc(F)ccc3[nH]2)cc1` as the molecule, how does the pIC50 (Beta-secretase 1 [1]) read?
Answer: 6.14

Question: With `CC(C)c1ccc(CO[C@H]2CNC[C@@H]2Nc2nc3cc(F)ccc3[nH]2)cc1` as the molecule, how does the pIC50 (Beta-secretase 1 [1]) read?
Answer: < 5.30

Question: With `CC(C)(C)OC(=O)N1C[C@H](Nc2nc3cc(Cl)ccc3[nH]2)[C@@H](OC(=O)c2ccc(-c3ccccc3)cc2)C1` as the molecule, how does the pIC50 (Beta-secretase 1 [1]) read?
Answer: 6.36

Question: Which Papp A→B at 50 µM [2] does the source give for `CC(C)c1ccc(C(=O)O[C@H]2CN(C(=O)OC(C)(C)C)C[C@@H]2Nc2nc3cc(F)ccc3[nH]2)cc1` here?
Answer: 2.3 ×10⁻⁶ cm/s

Question: What about the pIC50 (Beta-secretase 2) of the same molecule?
Answer: 5.36

Question: And the inhibition (Cathepsin D [3])?
Answer: 1.4%

Question: What about the pIC50 (Cathepsin D [5]) of the same molecule?
Answer: < 5.00

Question: And the pIC50 (Beta-secretase 1 [1])?
Answer: 7.15

Question: What about the inhibition (Beta-secretase 1 [6]) of the same molecule?
Answer: 34%

Question: With `CCCS(=O)(=O)N1C[C@H](Nc2nc3cc(F)ccc3[nH]2)[C@@H](OC(=O)c2ccc(N(C)C)cc2)C1` as the molecule, how does the pIC50 (Beta-secretase 1 [1]) read?
Answer: 5.50

Question: With `CC(C)c1ccc(C(=O)O[C@H]2CN(S(=O)(=O)c3ccccc3)C[C@@H]2Nc2nc3cc(F)ccc3[nH]2)cc1` as the molecule, how does the pIC50 (Beta-secretase 1 [1]) read?
Answer: 6.14

Question: With `COc1ccc2[nH]c(N[C@H]3CN(C(=O)OC(C)(C)C)C[C@@H]3OC(=O)c3ccc(-c4ccccc4)cc3)nc2c1` as the molecule, how does the pIC50 (Beta-secretase 1 [1]) read?
Answer: 6.35

Question: With `CC(C)c1ccc(CO[C@H]2CN(CC(N)=O)C[C@@H]2Nc2nc3cc(F)ccc3[nH]2)cc1` as the molecule, how does the pIC50 (Beta-secretase 1 [1]) read?
Answer: < 5.30
